Experimental data taken from PubChem BioAssay AID1963856 (Molecular Pharmacology Branch, DTP, NCI, 2024).

System: LG0567-F671-PDC KRAS tumor spheroid viability
Assay: Anticancer human tumor LG0567-F671-PDC patient-derived lung adenocarcinoma cell line growth inhibition [KRAS2]
Settings: spheroids with HUVEC and MSC; for IC50: curve of first compound; for viability, T/C: stronger effect = lower value
In short: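 KRAS-mutant tumor cells were grown as spheroids with HUVEC endothelial cells and human MSCs as stroma. Targeted agents were tested alone and with KRAS pathway inhibitors. Doses started at or near clinical Cmax, or 10 microM, descending half-log.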

[1] = second compound 0.1 µM, first compound 0.000316 µM
[2] = second compound 0.1 µM, first compound 0.001 µM
[3] = second compound 0.1 µM, first compound 0.00316 µM
[4] = second compound 0.1 µM, first compound 0.01 µM
[5] = second compound 0.1 µM, first compound 0.0316 µM
[6] = second compound 0.1 µM, first compound 0.1 µM
[7] = second compound 0.316 µM, first compound 0.000316 µM
[8] = second compound 0.316 µM, first compound 0.001 µM
[9] = second compound 0.316 µM, first compound 0.00316 µM
[10] = second compound 0.316 µM, first compound 0.01 µM
[11] = second compound 0.316 µM, first compound 0.0316 µM
[12] = second compound 0.316 µM, first compound 0.1 µM
[13] = second compound 1 µM, first compound 0.000316 µM
[14] = second compound 1 µM, first compound 0.001 µM
[15] = second compound 1 µM, first compound 0.00316 µM
[16] = second compound 1 µM, first compound 0.01 µM
[17] = second compound 1 µM, first compound 0.0316 µM
[18] = second compound 1 µM, first compound 0.1 µM
[19] = second compound 3.16 µM, first compound 0.000316 µM
[20] = second compound 3.16 µM, first compound 0.001 µM
[21] = second compound 3.16 µM, first compound 0.00316 µM
[22] = second compound 3.16 µM, first compound 0.01 µM
[23] = second compound 3.16 µM, first compound 0.0316 µM
[24] = second compound 3.16 µM, first compound 0.1 µM
[25] = second compound 10 µM, first compound 0.000316 µM
[26] = second compound 10 µM, first compound 0.001 µM
[27] = second compound 10 µM, first compound 0.00316 µM
[28] = second compound 10 µM, first compound 0.01 µM
[29] = second compound 10 µM, first compound 0.0316 µM
[30] = second compound 10 µM, first compound 0.1 µM
[31] = second compound 0.1 µM, first compound 0.316 µM
[32] = second compound 0.1 µM, first compound 1 µM
[33] = second compound 0.1 µM, first compound 3.16 µM
[34] = second compound 0.1 µM, first compound 10 µM
[35] = second compound 0.316 µM, first compound 0.316 µM
[36] = second compound 0.316 µM, first compound 1 µM
[37] = second compound 0.316 µM, first compound 3.16 µM
[38] = second compound 0.316 µM, first compound 10 µM
[39] = second compound 1 µM, first compound 0.316 µM
[40] = second compound 1 µM, first compound 1 µM
[41] = second compound 1 µM, first compound 3.16 µM
[42] = second compound 1 µM, first compound 10 µM
[43] = second compound 3.16 µM, first compound 0.316 µM
[44] = second compound 3.16 µM, first compound 1 µM
[45] = second compound 3.16 µM, first compound 3.16 µM
[46] = second compound 3.16 µM, first compound 10 µM
[47] = second compound 10 µM, first compound 0.316 µM
[48] = second compound 10 µM, first compound 1 µM
[49] = second compound 10 µM, first compound 3.16 µM
[50] = second compound 10 µM, first compound 10 µM
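Note: drug exposure lasted seven days after spheroids formed for three days.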
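Throughout, for viability, T/C: 100% = DMSO vehicle control viability.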

Row | SMILES | IC50 (second compound 0.1 µM) [nM] | IC50 (second compound 0.316 µM) [nM] | IC50 (second compound 1 µM) [nM] | IC50 (second compound 3.16 µM) [nM] | IC50 (second compound 10 µM) [nM] | viability, T/C [5] [%] | viability, T/C [6] [%] | viability, T/C [11] [%] | viability, T/C [12] [%] | viability, T/C [17] [%] | viability, T/C [18] [%] | viability, T/C [23] [%] | viability, T/C [24] [%] | viability, T/C [29] [%] | viability, T/C [30] [%] | viability, T/C [31] [%] | viability, T/C [32] [%] | viability, T/C [33] [%] | viability, T/C [34] [%] | viability, T/C [35] [%] | further results
1 | CC(C)n1nc(-c2ccc3oc(N)nc3c2)c2c(N)ncnc21 + CC1OCC2(CCN(c3cnc(Sc4ccnc(N)c4Cl)c(N)n3)CC2)C1N | < 0.316 | < 0.316 | < 0.316 | < 0.316 | < 0.316 | 16.2 | 10.6 | 7.3 | 6.32 | 4.63 | 3.58 | 2.37 | 1.36 | 1.59 | 1.8 |  |  |  |  |  | viability, T/C [1]: 43.3%; viability, T/C [2]: 48.6%; viability, T/C [3]: 25.5%; viability, T/C [4]: 18%; viability, T/C [7]: 35.9%; viability, T/C [8]: 29%; viability, T/C [9]: 21%; viability, T/C [10]: 11.8%; viability, T/C [13]: 25.8%; viability, T/C [14]: 18.8%; viability, T/C [15]: 11.4%; viability, T/C [16]: 5.96%; viability, T/C [19]: 17.4%; viability, T/C [20]: 12%; viability, T/C [21]: 6.04%; viability, T/C [22]: 2.59%; viability, T/C [25]: 7.01%; viability, T/C [26]: 5.93%; viability, T/C [27]: 3.89%; viability, T/C [28]: 2.31%
2 | CC1(C)CCC(CN2CCN(c3ccc(C(=O)NS(=O)(=O)c4ccc(NCC5CCOCC5)c([N+](=O)[O-])c4)c(Oc4cnc5[nH]ccc5c4)c3)CC2)=C(c2ccc(Cl)cc2)C1 + CC1OCC2(CCN(c3cnc(Sc4ccnc(N)c4Cl)c(N)n3)CC2)C1N | < 31.6 | < 31.6 | < 31.6 | < 31.6 | < 31.6 | 47 | 44.4 | 42.2 | 31.9 | 27.8 | 26.2 | 22.9 | 24 | 12.2 | 15.4 | 41.8 | 39.1 | 15.4 | 3.67 | 33.4 | viability, T/C [36]: 32.9%; viability, T/C [37]: 9.77%; viability, T/C [38]: 2.77%; viability, T/C [39]: 27%; viability, T/C [40]: 27.1%; viability, T/C [41]: 8.05%; viability, T/C [42]: 1.79%; viability, T/C [43]: 18.3%; viability, T/C [44]: 16.1%; viability, T/C [45]: 2.78%; viability, T/C [46]: 2.97%; viability, T/C [47]: 11.1%; viability, T/C [48]: 10.7%; viability, T/C [49]: 2.4%; viability, T/C [50]: 0.54%
3 | COc1cc(Nc2ncc3c(n2)-c2ccc(Cl)cc2C(c2c(F)cccc2OC)=NC3)ccc1C(=O)O + CC1OCC2(CCN(c3cnc(Sc4ccnc(N)c4Cl)c(N)n3)CC2)C1N | 204 | < 31.6 | < 31.6 | < 31.6 | < 31.6 | 58.7 | 49.6 | 25.7 | 26 | 17.6 | 19.2 | 12.1 | 8.31 | 4.83 | 3.93 | 45.7 | 47.1 | 40.3 | 31.7 | 21.7 | viability, T/C [36]: 22.8%; viability, T/C [37]: 23.8%; viability, T/C [38]: 18.8%; viability, T/C [39]: 18.1%; viability, T/C [40]: 18.5%; viability, T/C [41]: 17.2%; viability, T/C [42]: 14.9%; viability, T/C [43]: 8.93%; viability, T/C [44]: 8.9%; viability, T/C [45]: 4.29%; viability, T/C [46]: 5.34%; viability, T/C [47]: 3.68%; viability, T/C [48]: 3.68%; viability, T/C [49]: 3.65%; viability, T/C [50]: 4.21%
4 | COc1cc2nccc(Oc3ccc(NC(=O)C4(C(=O)Nc5ccc(F)cc5)CC4)cc3)c2cc1OC + CC1OCC2(CCN(c3cnc(Sc4ccnc(N)c4Cl)c(N)n3)CC2)C1N | < 31.6 | < 31.6 | < 31.6 | < 31.6 | < 31.6 | 54 | 50.4 | 33 | 30.9 | 25.7 | 22.8 | 19.6 | 15.2 | 13.1 | 9.16 | 33.3 | 31.5 | 30.3 | 88.4 | 26.6 | viability, T/C [36]: 20.9%; viability, T/C [37]: 13.3%; viability, T/C [38]: 69.7%; viability, T/C [39]: 18.4%; viability, T/C [40]: 13.8%; viability, T/C [41]: 9.19%; viability, T/C [42]: 43.3%; viability, T/C [43]: 8.47%; viability, T/C [44]: 6.57%; viability, T/C [45]: 6.28%; viability, T/C [46]: 25.8%; viability, T/C [47]: 8.96%; viability, T/C [48]: 6.33%; viability, T/C [49]: 3.72%; viability, T/C [50]: 23.3%
5 | Cn1ncnc1[C@H]1c2n[nH]c(=O)c3cc(F)cc(c23)N[C@@H]1c1ccc(F)cc1 + CC1OCC2(CCN(c3cnc(Sc4ccnc(N)c4Cl)c(N)n3)CC2)C1N | < 0.316 | < 0.316 | < 0.316 | < 0.316 | < 0.316 | 57.3 | 54.9 | 32.8 | 35.2 | 22.5 | 23.3 | 12 | 13.8 | 8.87 | 7.89 |  |  |  |  |  | viability, T/C [1]: 48.9%; viability, T/C [2]: 53.1%; viability, T/C [3]: 52.4%; viability, T/C [4]: 56.4%; viability, T/C [7]: 47%; viability, T/C [8]: 34.5%; viability, T/C [9]: 29.1%; viability, T/C [10]: 36.4%; viability, T/C [13]: 29.4%; viability, T/C [14]: 25.9%; viability, T/C [15]: 21.9%; viability, T/C [16]: 18.9%; viability, T/C [19]: 24.4%; viability, T/C [20]: 19.1%; viability, T/C [21]: 19.1%; viability, T/C [22]: 15.3%; viability, T/C [25]: 11.2%; viability, T/C [26]: 12.2%; viability, T/C [27]: 15.7%; viability, T/C [28]: 9.32%
